We go through five compounds from ChEMBL document CHEMBL6103565, “Current strategies in design and synthesis of antifungals hybrid and chimeric diazine derivatives” (Bioorg Med Chem, 2025).

Each structure is given as a SMILES string. Values after ≈ are worked out from the molar mass of the structure shown.

In assay [1] the test system is Candida albicans. Briefly: Antifungal activity against Candida albicans assessed as fungal growth inhibition. Type of assay: functional.
The subject of assay [2] is Candida albicans. Briefly: Antifungal activity against Candida albicans ATCC 10231 assessed as inhibition of mycelial growth relative to control. The class given is functional.
In assay [3] the test system is Candida albicans. Description: Antifungal activity against Candida albicans ATCC 10231 assessed as zone of inhibition incubated for 24 hrs by disc diffusion method. Type of assay: functional.
Assay [4] deals with Candida albicans. Description: Antifungal activity against Candida albicans NRRL-Y477 assessed as zone of inhibition by disc diffusion method. Type of assay: functional. For orientation: A growth-free zone around the sample is the usual read-out of agar diffusion tests.
Assay [5] has as its system Aspergillus niger. Briefly: Antifungal activity against Aspergillus niger ATCC 16404 assessed as inhibition of mycelial growth relative to control. The class given is functional.
The test system of assay [6] is Aspergillus niger. Description: Antifungal activity against Aspergillus niger MTCC 282 by disc diffusion method. Type of assay: functional, organism-based.
The next assay concerns Aspergillus clavatus. Description: Antifungal activity against Aspergillus […] MTCC 1323 assessed as reduction in microbial growth after 48 hrs by broth dilution method. Type of assay: functional.
Assay [7] concerns Aspergillus niger. Briefly: Antifungal activity against Aspergillus niger MTCC 282 assessed as reduction in microbial growth after 48 hrs by broth dilution method. The class given is functional. (Broth dilution looks for growth in wells or tubes with falling amounts of substance.)
For assay [8], the system named is Candida albicans. Briefly: Antifungal activity against Candida albicans MTCC 227 by disc diffusion method. The class given is functional, organism-based.
Assay [9] deals with Candida albicans. Briefly: Antifungal activity against Candida albicans MTCC 227 assessed as reduction in microbial growth after 48 hrs by broth dilution method. The class given is functional.
Assay [10] deals with Nakaseomyces glabratus. Briefly: Antifungal activity against Candida glabrata ATCC 90030 assessed as diameter of zone of inhibition. Type of assay: functional.
Assay [11] has as its system Candida tropicalis. Briefly: Antifungal activity against Candida tropicalis ATCC 750 assessed as diameter of zone of inhibition. The class given is functional.
Assay [12] concerns Candida albicans. Briefly: Antifungal activity against Candida albicans ATCC 90028 assessed as diameter of zone of inhibition. The class given is functional.
In assay [13] the test system is Nakaseomyces glabratus. Briefly: Antifungal activity against Candida glabrata ATCC 90030 assessed as reduction in microbial growth. Type of assay: functional.
In assay [14] the test system is Candida tropicalis. Description: Antifungal activity against Candida tropicalis ATCC 750 assessed as reduction in microbial growth. The class given is functional.
Assay [15] has as its system Candida albicans. Description: Antifungal activity against Candida albicans ATCC 90028 assessed as reduction in microbial growth. Type of assay: functional.
Another assay has as its system Sclerotinia sclerotiorum. Description: Fungicidal activity against Sclerotinia sclerotiorum assessed as fungal inhibitory rate at 200 ug/ml relative to control. Type of assay: functional.
The test system of the next assay is Fusarium graminearum. Description: Fungicidal activity against Gibberella zeae assessed as fungal inhibitory rate at 200 ug/ml relative to control. Type of assay: functional.
A further assay relates to Botryosphaeria dothidea. Briefly: Fungicidal activity against Botryosphaeria dothidea assessed as fungal inhibitory rate at 200 ug/ml relative to control. The class given is functional.

As usually defined, the MIC is the lowest concentration found to suppress growth. Turning to `C[C@@H]1[C@H](O)[C@@H](C)/C=C/C=C/CC/C=C/C=C/C=C/C=C/[C@H](O[C@@H]2O[C@H](C)[C@@H](O)[C@H](N)[C@@H]2O)C[C@@H]2O[C@](O)(C[C@@H](O)[C@H](O)CC[C@@H](O)C[C@@H](O)C[C@@H](O)CC(=O)O[C@H]1C)C[C@H](O)[C@H]2C(=O)O`, the MIC in the assay with Candida albicans [1] turned out to be 1 µg/mL (≈ 1.08 µM). Further, the “inhibition (INH)” value in the assay with Candida albicans [2] stood at 63%; with Aspergillus niger [5], 66%. Besides, the “inhibition zone (IZ)” value with Candida albicans [3] is on record as 26 mm; in the assay on Candida albicans [4], 23 mm.
Take `COC(=O)COc1cccc(OCC(=O)OC)c1C(=O)C[n+]1cc2ccccc2cn1.[Br-]`: the MIC with Candida albicans [1] was 1.25 µg/mL.
The term EC50 denotes the concentration at which the effect is half-maximal. High values mean weaker potency, low ones greater potency. With `CC(=O)N1N=C(C2=C(C)NC(=O)NC2c2ccc(F)cc2)OC1c1ccc([N+](=O)[O-])cc1` (stereo not given), the concentration giving a half-maximal response (EC50) with Aspergillus niger [6] and in the assay on Candida albicans [8] was 0.14 µg/mL (≈ 0.319 µM) in each case. Further, the MIC with Aspergillus clavatus was 50 µg/mL; in the assay on Aspergillus niger [7] it was 50 µg/mL; in the assay with Candida albicans [9] it was 100 µg/mL.
As to `Cc1ccc(C2C3=C(N=C4SC=CN42)[C@@]2(C)CC[C@H]4[C@@H](CC=C5C[C@@H](O)CC[C@@]54C)[C@@H]2C3)cc1` (stereo not given in full), the “inhibition zone (IZ)” value in the assay with Nakaseomyces glabratus [10] worked out at 15 mm; with Candida tropicalis [11], 15 mm; in the assay on Candida albicans [12], 13 mm. The results for the minimal inhibitory concentration (MIC) with Nakaseomyces glabratus [13], in the assay on Candida tropicalis [14] and in the assay with Candida albicans [15] were over 1000 µg/mL, over 1000 µg/mL and 700 µg/mL, respectively.
For orientation: inhibition means the change of the read-out against control, counted positive when it falls. `Cc1ncc(NC(=O)c2cc(Cl)nn2-c2ncccc2Cl)c(-c2noc(C)n2)n1`: the values for the inhibition at 200 µg/mL in the assay with Sclerotinia sclerotiorum, with Fusarium graminearum and in the assay with Botryosphaeria dothidea were 54.1%, 54.9% and 85.9%, respectively.
